According to PubChem BioAssay AID328 (DTP/NCI, 2004):
“And” between values parts separate entries of the source, which are not always exact repeats. Equal values may be shown once. Inconclusive results and toxic doses are left out. Rule for the calls: active = survival T/C of 150% or more; inactive = T/C below 125% in these data.

Tested on: BDF1 mice, P388 leukemia ip, median survival T/C
Assay: NCI In Vivo Anticancer Drug Screen. Data for tumor model P388 Leukemia (intraperitoneal) in B6D2F1 (BDF1) mice
Details: endpoint: median survival time, higher = longer survival
In short: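 Survival ratio, drug arm over vehicle arm, in mice with a transplanted tumour.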

[1] = dose: 25.0 mg/kg/injection, schedule: Q01DX009 (ip), vehicle: saline with Tween-80
[2] = dose: 50.0 mg/kg/injection, schedule: Q04DX003 (ip), vehicle: saline with Tween-80
[3] = dose: 100.0 mg/kg/injection, schedule: Q01DX009 (ip), vehicle: saline with Tween-80
[4] = dose: 100.0 mg/kg/injection, schedule: Q04DX003 (ip), vehicle: saline with Tween-80
[5] = dose: 200.0 mg/kg/injection, schedule: Q04DX003 (ip), vehicle: saline with Tween-80
[6] = dose: 25.0 mg/kg/injection, schedule: Q04DX003 (ip), vehicle: saline with Tween-80
[7] = dose: 100.0 mg/kg/injection, schedule: Q04DX003 (ip), vehicle: Klucel (hydroxypropylcellulose) (HPC)
[8] = dose: 100.0 mg/kg/injection, schedule: Q04DX003 (ip), vehicle: saline
[9] = dose: 200.0 mg/kg/injection, schedule: Q04DX003 (ip), vehicle: Klucel (hydroxypropylcellulose) (HPC)
[10] = dose: 200.0 mg/kg/injection, schedule: Q04DX003 (ip), vehicle: saline
[11] = dose: 400.0 mg/kg/injection, schedule: Q04DX003 (ip), vehicle: Klucel (hydroxypropylcellulose) (HPC)
[12] = dose: 50.0 mg/kg/injection, schedule: Q01DX009 (ip), vehicle: saline with Tween-80
[13] = dose: 200.0 mg/kg/injection, schedule: Q01DX009 (ip), vehicle: saline with Tween-80
[14] = dose: 100.0 mg/kg/injection, schedule: Q01DX009 (ip), vehicle: Klucel (hydroxypropylcellulose) (HPC)
[15] = dose: 200.0 mg/kg/injection, schedule: Q01DX009 (ip), vehicle: Klucel (hydroxypropylcellulose) (HPC)
[16] = dose: 400.0 mg/kg/injection, schedule: Q01DX009 (ip), vehicle: Klucel (hydroxypropylcellulose) (HPC)

Measured: T/C

OCc1cnc[nH]1
inactive: dose: 6.25 mg/kg/injection, schedule: Q01DX009 (ip), vehicle: Klucel (hydroxypropylcellulose) (HPC) 96 % of control | dose: 12.5 mg/kg/injection, schedule: Q01DX009 (ip), vehicle: Klucel (hydroxypropylcellulose) (HPC) 91 % of control | dose: 25.0 mg/kg/injection, schedule: Q01DX009 (ip), vehicle: Klucel (hydroxypropylcellulose) (HPC) 90 % of control | dose: 50.0 mg/kg/injection, schedule: Q01DX009 (ip), vehicle: Klucel (hydroxypropylcellulose) (HPC) 99 % of control

Cc1c(C)c2c(N)c3ccccc3nc2c2ccccc12
inactive: dose: 12.5 mg/kg/injection, schedule: Q01DX001 (ip), vehicle: saline with Tween-80 97 % of control | dose: 25.0 mg/kg/injection, schedule: Q01DX001 (ip), vehicle: saline with Tween-80 100 % of control and 117 % of control | dose: 50.0 mg/kg/injection, schedule: Q01DX001 (ip), vehicle: saline with Tween-80 105 % of control

Cc1ccc(C(=O)Cl)cc1S(=O)(=O)F
inactive: [1] 100 % of control | [2] 101 % of control | [3] 93 % of control | [4] 109 % of control | [5] 101 % of control

CCCSc1nc(N)nc2nc[nH]c12
inactive: dose: 100.0 mg/kg/injection, schedule: Q04DX003 (ip), vehicle: alcohol 100 % of control | dose: 200.0 mg/kg/injection, schedule: Q04DX003 (ip), vehicle: alcohol 104 % of control | dose: 400.0 mg/kg/injection, schedule: Q04DX003 (ip), vehicle: alcohol 90 % of control

NC(=NCCCC(NCc1ccccc1)C(=O)O)N[N+](=O)[O-] (stereo not given)
inactive: dose: 50.0 mg/kg/injection, schedule: Q04DX003 (ip), vehicle: saline + alcohol 103 % of control | dose: 100.0 mg/kg/injection, schedule: Q04DX003 (ip), vehicle: saline + alcohol 99 % of control | dose: 200.0 mg/kg/injection, schedule: Q04DX003 (ip), vehicle: saline + alcohol 94 % of control | dose: 400.0 mg/kg/injection, schedule: Q04DX003 (ip), vehicle: saline + alcohol 105 % of control

CCCCCCC/C=C\c1cnc2nc(N)nc(N)c2n1
inactive: [4] 92 % of control | [5] 89 % of control | dose: 400.0 mg/kg/injection, schedule: Q04DX003 (ip), vehicle: saline with Tween-80 92 % of control

COc1cc(C=O)c(C=O)cc1OC
inactive: dose: 6.25 mg/kg/injection, schedule: Q04DX003 (ip), vehicle: saline with Tween-80 110 % of control | dose: 12.5 mg/kg/injection, schedule: Q04DX003 (ip), vehicle: saline with Tween-80 106 % of control | [6] 106 % of control | [4] 97 % of control

CCCC[N+](CCCC)(CCCC)CCCC.Cc1ccc([SH2+])c([SH2+])c1.Cc1ccc([SH2+])c([SH2+])c1.[Ni+3]
inactive: dose: 100.0 mg/kg/injection, schedule: Q01DX001 (ip), vehicle: other 112 % of control | [7] 109 % of control | [8] 115 % of control | dose: 200.0 mg/kg/injection, schedule: Q01DX001 (ip), vehicle: other 112 % of control | [9] 118 % of control | [10] 115 % of control | dose: 265.0 mg/kg/injection, schedule: Q04DX003 (ip), vehicle: Klucel (hydroxypropylcellulose) (HPC) 116 % of control | dose: 400.0 mg/kg/injection, schedule: Q01DX001 (ip), vehicle: other 112 % of control | [11] 112 % of control

O=c1c2ccccc2ncn1-c1ccc(Cl)cc1
inactive: [12] 97 % of control | [3] 100 % of control | [13] 100 % of control

O=C1c2ccccc2CCC1(Br)C(Br)c1ccccc1 (stereo not given)
inactive: dose: 100.0 mg/kg/injection, schedule: Q01DX001 (ip), vehicle: Klucel (hydroxypropylcellulose) (HPC) 100 % of control | [14] 100 % of control | [7] 113 % of control | dose: 130.0 mg/kg/injection, schedule: Q01DX001 (ip), vehicle: Klucel (hydroxypropylcellulose) (HPC) 90 % of control | dose: 133.0 mg/kg/injection, schedule: Q01DX001 (ip), vehicle: Klucel (hydroxypropylcellulose) (HPC) 100 % of control | dose: 200.0 mg/kg/injection, schedule: Q01DX001 (ip), vehicle: Klucel (hydroxypropylcellulose) (HPC) 100 % of control and 109 % of control | [15] 100 % of control | [9] 113 % of control | dose: 300.0 mg/kg/injection, schedule: Q01DX001 (ip), vehicle: Klucel (hydroxypropylcellulose) (HPC) 95 % of control and 100 % of control | dose: 400.0 mg/kg/injection, schedule: Q01DX001 (ip), vehicle: Klucel (hydroxypropylcellulose) (HPC) 112 % of control | [16] 100 % of control | [11] 121 % of control

C[Si](C)(C)Nc1ncnc2c1ncn2[Si](C)(C)C
inactive: [3] 91 % of control

CCN(CC)CCOc1cc(C)ccc1C(C)C
inactive: [1] 96 % of control | [6] 109 % of control | [12] 111 % of control | [2] 109 % of control | [3] 107 % of control | [4] 118 % of control

O=C(Nc1ccc(Nc2ccncc2)cc1)c1ccc(Nc2ccnc3ccc([N+](=O)[O-])cc23)cc1[N+](=O)[O-]
inactive: dose: 12.5 mg/kg/injection, schedule: Q01DX009 (ip), vehicle: saline 93 % of control | dose: 50.0 mg/kg/injection, schedule: Q01DX009 (ip), vehicle: saline 88 % of control | dose: 50.0 mg/kg/injection, schedule: Q04DX003 (ip), vehicle: saline 111 % of control | dose: 100.0 mg/kg/injection, schedule: Q01DX009 (ip), vehicle: saline 91 % of control | [8] 105 % of control | dose: 200.0 mg/kg/injection, schedule: Q01DX009 (ip), vehicle: saline 98 % of control | [10] 93 % of control | dose: 400.0 mg/kg/injection, schedule: Q01DX009 (ip), vehicle: saline 119 % of control | dose: 400.0 mg/kg/injection, schedule: Q04DX003 (ip), vehicle: saline 88 % of control

Cc1cc(O)c2c(c1O)C(=O)C13C(=C2O)C(=O)C2C(O)C1C1C(O)C3C(=O)C3=C(O)c4c(O)cc(C)c(O)c4C(=O)C321 (stereo not given)
inactive: dose: 2.6 mg/kg/injection, schedule: Q04DX003 (ip), vehicle: saline with Tween-80 113 % of control | dose: 4.0 mg/kg/injection, schedule: Q04DX003 (ip), vehicle: saline with Tween-80 118 % of control

O=C(O)Cc1ccc(C2CCCCC2)cc1
inactive: [14] 91 % of control and 95 % of control | [15] 90 % of control | [16] 90 % of control and 100 % of control

Oc1ccccc1C=NC1CCCCC1.Oc1ccccc1C=NC1CCCCC1.[Co+2]
inactive: dose: 50.0 mg/kg/injection, schedule: Q01DX001 (ip), vehicle: saline sonified 90 % of control | dose: 100.0 mg/kg/injection, schedule: Q01DX001 (ip), vehicle: saline sonified 109 % of control | dose: 200.0 mg/kg/injection, schedule: Q01DX001 (ip), vehicle: saline sonified 109 % of control

ClC(CN1CCCCC1)C(Cl)c1ccccc1 (stereo not given)
inactive: dose: 50.0 mg/kg/injection, schedule: Q04DX003 (ip), vehicle: saline sonified 108 % of control | dose: 100.0 mg/kg/injection, schedule: Q04DX003 (ip), vehicle: saline sonified 112 % of control | dose: 200.0 mg/kg/injection, schedule: Q04DX003 (ip), vehicle: saline sonified 104 % of control

FC(F)(F)c1nc2cccc3c2n1CCC3
inactive: [2] 100 % of control | [4] 91 % of control

O=C1OC(c2ccccc2)(c2ccccc2)Cc2ccccc21
inactive: [3] 105 % of control | [13] 105 % of control | dose: 400.0 mg/kg/injection, schedule: Q01DX009 (ip), vehicle: saline with Tween-80 100 % of control

CCOC(=S)SCC(=O)Nc1ccc(S(N)(=O)=O)cc1
inactive: dose: 15.0 mg/kg/injection, schedule: Q01DX009 (ip), vehicle: saline with Tween-80 95 % of control | dose: 30.0 mg/kg/injection, schedule: Q01DX009 (ip), vehicle: saline with Tween-80 104 % of control | dose: 60.0 mg/kg/injection, schedule: Q01DX009 (ip), vehicle: saline with Tween-80 113 % of control
